# How the values were obtained:
# dap1Δ S. cerevisiae = test: Amphotericin B sensitivity of dap1Δ yeast; format: cell-based; conditions: 37° C; data not shown
# Method: PGRMC1 and its homologues have been implicated to be involved in a number of distinct biological processes. […] Additionally, dap1Δ S. cerevisiae appears to be resistant to the polyene antibiotic amphotericin B at 37° C. (data not shown). Amphotericin B functions in a similar manner as nystatin in binding to and depleting membrane ergosterol thereby killing the cell.
# His10-PGRMC1 = biological target: T1, His10-PGRMC1 (Homo sapiens, UniProt O00264); test: Competition of cold competitors with [^3H] progesterone or [^3H] cholesterol for His10-PGRMC1 binding; conditions: for effect of cold competitor on binding of [^3H] cholesterol: competitor at ten-fold higher concentration; for effect of cold competitor on specific [^3H] progesterone binding: competitor in ten-fold excess
# T1 construct: a product containing the full length coding region of PGMRC1 flanked by Nde1 and BamHI restriction sites; made in house; host or cells: E. coli BL21 (DE3) / BL21 codon plus (RIPL); purified bacterial membranes
# Method: The standard 10 μL binding reaction contained 10 μp purified membranes (total protein) and 10 μM [^3H] progesterone or [^3H] cholesterol (3,000-5,000 cpm) in buffer A: 20% ethanol. Stock solutions (100 μM) of [^3H] cholesterol and [^3H] progesterone containing ˜4×10^4 cpm/μL, were prepared in 95% ethanol. Reactions were prepared in clear 2.0 mL microcentrifuge tubes on ice. To start the reaction, the microfuge tube was briefly mixed (vortex) and placed at 37° C. Following a 10 to 30 min incubation, the tubes were centrifuged in a microfuge (˜13,000 rpm) for 2 min. The supernatant was carefully removed and the pellet was washed with an additional 10 μL water. After a second round of centrifugation (2 min; 13,000 rpm), the resulting supernatant was combined with the first and the pellet was resuspended in 20 μL H2O, Scintillation fluid (700 μL Wallac Optiflour) was added to each fraction and the fractions were mixed extensively. The fractions were then counted in a multi-well scintillation counter (Wallac Microbeta Triluxmax, Waltham, Mass.) for 30 seconds each. Binding are reported as μ/moles of ligand bound per mg of membrane protein. His10-PGRMC1 (His10 disclosed as SEQ ID NO: 14)-specific binding is reported as the difference in binding between transformed and untransformed bacteria. Experimental deviations from the standard assay conditions are noted in individual figure legends.
# To test whether progesterone and cholesterol compete for the same specific binding site, the direct binding of [^3H] progesterone or [^3H] cholesterol to His10-PGRMC1 (His10 disclosed as SEQ ID NO: 14) in the presence of various cold competitors was examined. In these experiments, the standard amount of [^3H] ligand was combined with a cold competitor at either 10 or 100-fold higher concentration and mixed well to ensure homogeneity. These stock ligand solutions were then used in the standard binding assay as described.
# The ability of other putative ligands reported in the literature to compete with progesterone binding was examined. […] As a control, cold progesterone (P) was used as a competitor and it was observed that excess cold progesterone competes with [^3H] progesterone for His10-PGRMC1 (His10 disclosed as SEQ ID NO: 14) binding. Contrastingly, binding of [^3H] cholesterol to His10-PGRMC1 (His10 disclosed as SEQ ID NO: 14) was unaffected by the presence of progesterone, ergosterol, or heme at ten-fold higher concentrations (FIG. 9, cholesterol). It was not until competitor concentrations were 100-fold higher than ligand that a reduction of cholesterol binding was observed.
# T1 sequence (O00264 whole entry): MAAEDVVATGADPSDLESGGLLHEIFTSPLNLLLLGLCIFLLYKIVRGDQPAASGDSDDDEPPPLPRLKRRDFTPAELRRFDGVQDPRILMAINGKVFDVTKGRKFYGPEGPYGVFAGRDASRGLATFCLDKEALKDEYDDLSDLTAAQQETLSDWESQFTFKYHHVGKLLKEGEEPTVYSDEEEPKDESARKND
effect of cold competitor on binding of [^3H] cholesterol (His10-PGRMC1),effect of cold competitor on specific [^3H] progesterone binding (His10-PGRMC1),SMILES,sensitivity of dap1Δ strain to the antibiotic (dap1Δ S. cerevisiae)
–,–,C[C@@H]1[C@H](O)[C@@H](C)/C=C/C=C/C=C/C=C/C=C/C=C/C=C/[C@H](O[C@@H]2O[C@H](C)[C@@H](O)[C@H](N)[C@@H]2O)C[C@@H]2O[C@](O)(C[C@@H](O)C[C@@H](O)[C@H](O)CC[C@@H](O)C[C@@H](O)CC(=O)O[C@H]1C)C[C@H](O)[C@H]2C(=O)O [amphotericin B],resistant
unaffected,reduced,CC(C)[C@@H](C)/C=C/[C@@H](C)[C@H]1CC[C@H]2C3=CC=C4C[C@@H](O)CC[C@]4(C)[C@H]3CC[C@]12C [ergosterol],–
unaffected,reduced,C=CC1=C(C)c2cc3[n-]c(cc4[n-]c(cc5nc(cc1n2)C(C)=C5C=C)c(C)c4CCC(=O)O)c(CCC(=O)O)c3C.[Fe+2] [heme],–

# Source: patent US8187821B2, “Compositions and methods for the modulation of PGRMC1” (University of Utah Research Foundation, priority 2008, dated 2012)
